Key:
[1] = biological target: T1, CaM binding domain of Arabidopsis thaliana NADK2 (Arabidopsis thaliana, UniProt Q9C5W3); assay: NADK peptide affinity for CaMs (intrinsic Trp of the peptide)
T1 construct: purchased Ohio Peptide LLC (Powell, OH); host or cells: chemical synthesis
Protocol: (§1) The steady-state fluorescence measurements were performed using a Perkin-Elmer LS55 spectrofluorimeter at 20°C. The titration buffer consisted of 200 mM MOPS, 150 mM KCl, 2 mM EGTA (pH 7.0) ([Tikunova et al., 2002], [2010]; [Tikunova and Davis, 2004]). […] The free Ca^2+ concentration was calculated using the EGCA02 program by [Robertson and Potter (1984)]. The free Mg^2+ concentration was calculated using the MaxChelator program ([Bers et al., 2010]). Each reported Kd represents an average of at least three successive titrations ± standard error and fit with the Hill equation as previously described ([George et al., 1996]).
(§2) The Ca^2+ titrations in the presence of Mg^2+ were performed as described above with the addition of 3 mM Mg^2+ to the titration buffer.

[2] = Steady-state Ca^2+ sensitivity of CaMs in the presence of NADK peptide; format: binding; details: vs MLCK peptide
Protocol: as §1, §2

| Substance | binding of NADK peptide to CaMs in the absence of Ca^2+ ([1]; absence of Ca^2+, data not shown) | affinity of NADK peptide for Ca^2+-saturated CaMs compared to MLCK ([1]; vs MLCK peptide) | effect at sensitizing the CaMs to Ca^2+ compared to MLCK [2] | Kd ([1]; read-out: NADK peptide affinity (Kd) for Ca^2+-saturated CaM, WT CaM titrated into 1 μM NADK peptide, 100 μM Ca^2+ (pCa = 4), 200 mM MOPS, 150 mM KCl, 2 mM EGTA, pH 7.0, 20°C, mean ± SE of at least three titrations) [nM] |
| --- | --- | --- | --- | --- |
| IYVHSKEGVWRTSAMVSRWK [NADK peptide] | did not bind | weaker affinity | substantially weaker effect |  |
| sCaM4: soybean CaM isoform 4; stress-induced CaM found in the soybean |  |  |  | 760 ± 70 |
